Assay results as given in patent US9463252B2, “Auristatin drug linker conjugates” (priority 2008, dated 2016).

Key:
786-O = assay: Cytotoxicity of Auristatin-Peptide-h1F6 conjugates, resazurin assay; type: cell-based, human
Excerpt: (§1) The conjugates contain approximately 4 drugs per antibody.

HCT-116 (CD70−) = assay: Cytotoxicity of Auristatin-Peptide-h1F6 conjugates, CD70- control cell line; type: cell-based; settings: Table 5, ~4 drugs/Ab
Excerpt: as §1

Caki-2 = assay: Cytotoxicity of Auristatin-Peptide-h1F6 conjugates, resazurin assay; type: cell-based
Procedure: as §1
Following the procedure described as Examples 57 and 58, Auristatin-Peptide-h1F6 conjugates were evaluated on CD70^+ cell, such as 786-O, Caki-1, Caki-2, and L428. Conjugates contain approximately 4 drugs per antibody.

L428 = assay: as above; type: cell-based
Excerpt: as §1

Caki-1 = assay: as above; type: cell-based
Excerpt: as §1

LP-1 = assay: as above; type: cell-based, human
Excerpt: as §1

UMRC-3 = assay: as above; type: cell-based
Excerpt: as §1

[1] = Table 5, h1F6 conjugates, ~4 drugs/Ab
[2] = Table 8, h1F6 conjugates, D vs L amino acid in second linker position
[3] = Table 9, h1F6-Drug(4) conjugates, mono- vs dipeptide linker
[4] = Table 10, h1F6-Drug(4) conjugates, aryl or alkyl maleimides
[5] = Table 7, h1F6 conjugates, AF vs MMAF

AF-Arginine-(D)Lysine-diaminoethane-propionyl maleimide [AF-Arg-(D)Lys]
IC50 786-O (786-O; [1]): 0.008 µg/mL | IC50 HCT-116 (CD70−) (HCT-116 (CD70−)): >1 µg/mL | IC50 Caki-2 (Caki-2; [1]): 0.008 µg/mL | IC50 L428 (L428; [1]): 0.047 µg/mL | IC50 Caki-1 (Caki-1; [1]): 0.01 µg/mL

AF-Asparagine-(D)Aspartic Acid-diaminoethane-propionyl maleimide [AF-Asn-(D)Asp]
IC50 786-O (786-O; [1]): 0.007 µg/mL | IC50 HCT-116 (CD70−) (HCT-116 (CD70−)): >1 µg/mL | IC50 Caki-2 (Caki-2; [1]): 0.071 µg/mL | IC50 L428 (L428; [1]): 0.014 µg/mL | IC50 Caki-1 (Caki-1; [1]): 0.007 µg/mL

AF-Asparagine-(D)Lysine-(D)Lysine-diaminoethane-propionyl maleimide [AF-Asn-(D)Lys-(D)Lys]
IC50 786-O (786-O; [1]): 0.009 µg/mL | IC50 HCT-116 (CD70−) (HCT-116 (CD70−)): >1 µg/mL | IC50 Caki-2 (Caki-2; [1]): 0.03 µg/mL | IC50 L428 (L428; [1]): 0.022 µg/mL | IC50 Caki-1 (Caki-1; [1]): 0.01 µg/mL

AF-Asparagine-(L)Lysine-diaminoethane-propionyl maleimide [AF-Asn-(L)Lys]
IC50 786-O (786-O; [2]): 0.009 µg/mL | IC50 LP-1 (LP-1; [2]): 0.501 µg/mL | IC50 UMRC-3 (UMRC-3; [2]): 0.026 µg/mL | IC50 L-428 (L428; [2]): 0.008 µg/mL | IC50 Caki-1 (Caki-1; [2]): 0.008 µg/mL

AF-Asparagine-Proline-diaminoethane-propionyl maleimide [AF-Asn-Pro]
IC50 786-O (786-O; [1]): 0.011 µg/mL | IC50 HCT-116 (CD70−) (HCT-116 (CD70−)): >1 µg/mL | IC50 Caki-2 (Caki-2; [1]): 0.032 µg/mL | IC50 L428 (L428; [1]): 0.023 µg/mL | IC50 Caki-1 (Caki-1; [1]): 0.012 µg/mL

AF-Citrulline-(D)Lysine-diaminoethane-propionyl maleimide [AF-Cit-(D)Lys]
IC50 786-O (786-O; [1]): 0.01 µg/mL | IC50 HCT-116 (CD70−) (HCT-116 (CD70−)): >1 µg/mL | IC50 Caki-2 (Caki-2; [1]): 0.016 µg/mL | IC50 L428 (L428; [1]): 0.047 µg/mL | IC50 Caki-1 (Caki-1; [1]): 0.011 µg/mL

AF-Glutamine-(D)Lysine-diaminoethane-propionyl maleimide [AF-Gln-(D)Lys]
IC50 786-O (786-O; [1]): 0.012 µg/mL | IC50 HCT-116 (CD70−) (HCT-116 (CD70−)): >1 µg/mL | IC50 Caki-2 (Caki-2; [1]): 0.014 µg/mL | IC50 L428 (L428; [1]): 0.209 µg/mL | IC50 Caki-1 (Caki-1; [1]): 0.011 µg/mL

AF-Homo-β-Phenylalanine-(D)Aspartic Acid-diaminoethane-propionyl maleimide [AF-hPhe-(D)Asp]
IC50 786-O (786-O; [1]): 0.01 µg/mL | IC50 HCT-116 (CD70−) (HCT-116 (CD70−)): >1 µg/mL | IC50 Caki-2 (Caki-2; [1]): >1 µg/mL | IC50 L428 (L428; [1]): 0.029 µg/mL | IC50 Caki-1 (Caki-1; [1]): >1 µg/mL

AF-Lysine-(D)Lysine-diaminoethane-propionyl maleimide [AF-Lys-(D)Lys]
IC50 786-O (786-O; [1]): 0.009 µg/mL | IC50 HCT-116 (CD70−) (HCT-116 (CD70−)): >1 µg/mL | IC50 Caki-2 (Caki-2; [1]): 0.009 µg/mL | IC50 L428 (L428; [1]): 0.037 µg/mL | IC50 Caki-1 (Caki-1; [1]): 0.008 µg/mL

AF-Methionine-(D)Aspartic Acid-diaminoethane-propionyl maleimide [AF-Met-(D)Asp]
IC50 786-O (786-O; [1]): 0.008 µg/mL | IC50 HCT-116 (CD70−) (HCT-116 (CD70−)): >1 µg/mL | IC50 Caki-2 (Caki-2; [1]): 0.035 µg/mL | IC50 L428 (L428; [1]): 0.011 µg/mL | IC50 Caki-1 (Caki-1; [1]): 0.01 µg/mL

AF-Methionine-(D)Lysine-(D)Lysine-diaminoethane-propionyl maleimide [AF-Met-(D)Lys-(D)Lys]
IC50 786-O (786-O; [1]): 0.008 µg/mL | IC50 HCT-116 (CD70−) (HCT-116 (CD70−)): >1 µg/mL | IC50 Caki-2 (Caki-2; [1]): 0.025 µg/mL | IC50 L428 (L428; [1]): >1 µg/mL | IC50 Caki-1 (Caki-1; [1]): 0.012 µg/mL

AF-Methionine-(D)Methionine-diaminoethane-propionyl maleimide [AF-Met-(D)Met]
IC50 786-O (786-O; [1]): 0.004 µg/mL | IC50 HCT-116 (CD70−) (HCT-116 (CD70−)): >1 µg/mL | IC50 Caki-2 (Caki-2; [1]): 0.013 µg/mL | IC50 L428 (L428; [1]): 0.004 µg/mL | IC50 Caki-1 (Caki-1; [1]): 0.005 µg/mL

AF-Methionine-(D)Valine-diaminoethane-propionyl maleimide [AF-Met-(D)Val]
IC50 786-O (786-O; [1]): 0.005 µg/mL | IC50 HCT-116 (CD70−) (HCT-116 (CD70−)): >1 µg/mL | IC50 Caki-2 (Caki-2; [1]): 0.032 µg/mL | IC50 L428 (L428; [1]): 0.008 µg/mL | IC50 Caki-1 (Caki-1; [1]): 0.006 µg/mL

AF-Methionine-(L)Lysine-diaminoethane-propionyl maleimide [AF-Met-(L)Lys]
IC50 786-O (786-O; [2]): 0.007 µg/mL | IC50 LP-1 (LP-1; [2]): 0.095 µg/mL | IC50 UMRC-3 (UMRC-3; [2]): 0.022 µg/mL | IC50 L-428 (L428; [2]): 0.003 µg/mL | IC50 Caki-1 (Caki-1; [2]): 0.004 µg/mL

AF-Methionine-Proline-diaminoethane-propionyl maleimide [AF-Met-Pro]
IC50 786-O (786-O; [1]): 0.008 µg/mL | IC50 HCT-116 (CD70−) (HCT-116 (CD70−)): >1 µg/mL | IC50 Caki-2 (Caki-2; [1]): 0.025 µg/mL | IC50 L428 (L428; [1]): 0.008 µg/mL | IC50 Caki-1 (Caki-1; [1]): 0.015 µg/mL

AF-Methionine-diaminoethane-propionyl maleimide
IC50 786-O (786-O; [3]): 0.008 µg/mL | IC50 LP-1 (LP-1; [3]): 0.11 µg/mL | IC50 UMRC-3 (UMRC-3; [3]): 0.017 µg/mL | IC50 L-428 (L428; [3]): 0.003 µg/mL | IC50 Caki-1 (Caki-1; [3]): 0.006 µg/mL

AF-Tyrosine-(D)Lysine-diaminoethane-propionyl maleimide [AF-Tyr-(D)Lys]
IC50 786-O (786-O; [1]): 0.009 µg/mL | IC50 HCT-116 (CD70−) (HCT-116 (CD70−)): >1 µg/mL | IC50 Caki-2 (Caki-2; [1]): 0.012 µg/mL | IC50 L428 (L428; [1]): 0.01 µg/mL | IC50 Caki-1 (Caki-1; [1]): 0.011 µg/mL

AM-Asparagine-(D)Lysine-diaminoethane-benzoyl maleimide [AM-Asn-(D)Lys-aryl maleimide]
IC50 786-O (786-O; [4]): 0.016 µg/mL | IC50 Caki-2 (Caki-2; [4]): 0.017 µg/mL | IC50 L428 (L428; [4]): 0.023 µg/mL | IC50 Caki-1 (Caki-1; [4]): 0.01 µg/mL

AM-Asparagine-diaminoethane-propionyl maleimide [AM-Asn]
IC50 786-O (786-O; [1]): 0.03 µg/mL | IC50 HCT-116 (CD70−) (HCT-116 (CD70−)): >1 µg/mL | IC50 Caki-2 (Caki-2; [1]): 0.063 µg/mL | IC50 L428 (L428; [1]): 0.032 µg/mL | IC50 Caki-1 (Caki-1; [1]): 0.031 µg/mL

AM-Methionine-(D)Lysine-diaminoethane-propionyl maleimide [AM-Met-(D)Lys]
IC50 786-O (786-O; [1]): 0.056 µg/mL | IC50 HCT-116 (CD70−) (HCT-116 (CD70−)): >1 µg/mL | IC50 Caki-2 (Caki-2; [1]): 0.251 µg/mL | IC50 L428 (L428; [1]): 1 µg/mL | IC50 Caki-1 (Caki-1; [1]): 0.039 µg/mL

AM-Tyrosine-(D)Aspartic Acid-diaminoethane-propionyl maleimide [AM-Tyr-(D)Asp]
IC50 786-O (786-O; [1]): 0.032 µg/mL | IC50 HCT-116 (CD70−) (HCT-116 (CD70−)): >1 µg/mL | IC50 Caki-2 (Caki-2; [1]): 0.071 µg/mL | IC50 L428 (L428; [1]): 0.03 µg/mL | IC50 Caki-1 (Caki-1; [1]): 0.023 µg/mL

AW-Asparagine-(D)Lysine-diaminoethane-propionyl maleimide [AW-Asn-(D)Lys]
IC50 786-O (786-O; [1]): 0.016 µg/mL | IC50 HCT-116 (CD70−) (HCT-116 (CD70−)): >1 µg/mL | IC50 Caki-2 (Caki-2; [1]): 0.026 µg/mL | IC50 L428 (L428; [1]): 0.019 µg/mL | IC50 Caki-1 (Caki-1; [1]): 0.015 µg/mL

AW-Asparagine-diaminoethane-propionyl maleimide [AW-Asn]
IC50 786-O (786-O; [1]): 0.018 µg/mL | IC50 HCT-116 (CD70−) (HCT-116 (CD70−)): >1 µg/mL | IC50 Caki-2 (Caki-2; [1]): 0.03 µg/mL | IC50 L428 (L428; [1]): 0.022 µg/mL | IC50 Caki-1 (Caki-1; [1]): 0.015 µg/mL

AW-Methionine-(D)Lysine-diaminoethane-benzoyl maleimide [AW-Met-(D)Lys-aryl-maleimide]
IC50 786-O (786-O; [4]): 0.012 µg/mL | IC50 Caki-2 (Caki-2; [4]): 0.012 µg/mL | IC50 L428 (L428; [4]): >1 µg/mL | IC50 Caki-1 (Caki-1; [4]): 0.015 µg/mL

AW-Tyrosine-(D)Aspartic acid-diaminoethane-propionyl maleimide [AW-Tyr-(D)Asp]
IC50 786-O (786-O; [1]): 0.018 µg/mL | IC50 HCT-116 (CD70−) (HCT-116 (CD70−)): >1 µg/mL | IC50 Caki-2 (Caki-2; [1]): 0.033 µg/mL | IC50 L428 (L428; [1]): 0.021 µg/mL | IC50 Caki-1 (Caki-1; [1]): 0.016 µg/mL

MMAF-Methionine-(D)Lysine-diaminoethane-propionyl maleimide [MMAF-Met-(D)Lys]
IC50 786-O (786-O; [5]): 0.01 µg/mL | IC50 LP-1 (LP-1; [5]): >1 µg/mL | IC50 UMRC-3 (UMRC-3; [5]): 0.1 µg/mL | IC50 L-428 (L428; [5]): 0.123 µg/mL | IC50 Caki-1 (Caki-1; [5]): 0.008 µg/mL
